Measured values reported in US7119077B1, “Multimeric forms of members of the steroid/thyroid superfamily of receptors with the ultraspiracle receptor” (The Salk Institute for Biological Studies, priority 1990, dated 2006).
Entries after “also recorded” stand apart in the source; their conditions may differ.

What was measured:
EcR/usp [1] = target: T1, EcR/usp (Drosophila melanogaster, UniProt P34021); test: Cotransfection CAT reporter assay with EcR and/or usp expression vectors in CV1 cells; type: cell-based, monkey kidney cells (CV1); conditions: CV1 cells transfected with EcR alone, ΔMTV-EcRE5-CAT reporter, 40 μM
T1 construct: expressed in transfected cells; host or cells: CV1 monkey kidney cells
T1 sequence (P34021 1-878): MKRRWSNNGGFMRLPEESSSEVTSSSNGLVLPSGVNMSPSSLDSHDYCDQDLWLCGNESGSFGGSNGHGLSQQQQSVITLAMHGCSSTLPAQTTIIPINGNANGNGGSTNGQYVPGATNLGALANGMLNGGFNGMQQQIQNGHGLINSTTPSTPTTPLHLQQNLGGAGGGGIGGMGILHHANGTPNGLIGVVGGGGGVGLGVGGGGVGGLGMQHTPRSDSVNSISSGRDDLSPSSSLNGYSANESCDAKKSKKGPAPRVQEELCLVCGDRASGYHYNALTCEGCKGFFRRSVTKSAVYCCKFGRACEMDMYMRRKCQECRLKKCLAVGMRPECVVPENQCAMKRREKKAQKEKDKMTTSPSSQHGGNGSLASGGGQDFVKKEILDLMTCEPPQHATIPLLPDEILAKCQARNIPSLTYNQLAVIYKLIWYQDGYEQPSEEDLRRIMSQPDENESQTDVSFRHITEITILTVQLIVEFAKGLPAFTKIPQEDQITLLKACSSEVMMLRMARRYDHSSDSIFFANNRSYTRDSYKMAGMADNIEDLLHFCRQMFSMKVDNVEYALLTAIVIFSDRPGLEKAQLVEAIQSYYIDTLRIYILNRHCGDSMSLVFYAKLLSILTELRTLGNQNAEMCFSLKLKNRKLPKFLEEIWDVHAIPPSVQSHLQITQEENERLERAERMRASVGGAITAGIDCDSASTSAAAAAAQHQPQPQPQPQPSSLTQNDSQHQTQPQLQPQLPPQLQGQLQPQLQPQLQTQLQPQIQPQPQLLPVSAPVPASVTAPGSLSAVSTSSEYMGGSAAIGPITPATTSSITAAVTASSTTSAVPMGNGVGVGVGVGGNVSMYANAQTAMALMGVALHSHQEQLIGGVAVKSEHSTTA
Procedure: (§1) Transfection was performed with calcium-phosphate precipitation method as described previously [Umesono et al., Nature 336:262–264 (1989)]. CV1 monkey kidney cells were maintained in Dulbecco's modified Eagle's medium (DMEM) supplemented with 10% calf bovine serum. The cells were transfected for 8–9 hours and then the DNA precipitates were washed away and replaced with fresh medium with 10% charcoal-resin double stripped fetal bovine serum. 20-hydroxy-ecdysone (Sigma; 10 mg/ml in ethanol), or ethanol alone was then given to the cells. 24–28 hours later, the cells were harvested. Beta-galactosidase (βGal) activity was measured and a normalized amount of extract was used for CAT assay (Umesono et al. (1989) supra]. The following amount of plasmid DNA was included in the 10 cm plate transfection: 250 ng each of CMX-EcR and RSV-GEcR; 500 ng of CMX-usp; 5 μg ΔMTV-EcRE5-CTA; 5 μg of βGal internal control plasmid CH111 (a derivative of CH110, Promega). The amount of CMX plasmid was kept constant in each transfection by adding CMX-luciferase. PGEM4 was added to bring the total amount of plasmid DNA to 15 μg per plate.
(§2) Ecdysone response in CV1 cells was determined by using an ecdysone-responsive reporter gene (ΔMTV-EcRE5-CAT), which contains the same core hsp27-EcRE motif tested in DNA binding assay described earlier. The chloramphenicol acetyl transferase (CAT) activity induced by ecdysone was measured in the presence of different combinations of transfected EcR and usp expression vectors. CAT activity is expressed in FIG. 2 as the percentage of conversion which is normalized against the level in EcR alone at the presence of ecdysone assigned as one (column 1, shaded rectangle). The final concentration of 20-hydroxy-ecdysone (Sigma) is 40 μM. […] Cotransfection of EcR and usp together is shown in column 3 and the induction of CAT activity could be observed by about 3 fold.
(§3) To test whether usp can complement the EcR activity as it did in the DNA binding assay, usp expression vector was cotransfected with EcR into CV1 cells. Cotransfection of usp with EcR indeed was able to confer a significant response to 20-OH-ecdysone (over 3 fold, FIG. 2A). […] The level of induction by EcR and usp in CV1 cells is significant but somewhat lower than expected compared with the interaction in DNA binding assay.

EcR/usp [2] = test: as above; type: cell-based, monkey kidney cells (CV1); conditions: 40 μM
Procedure: as §1, §2, §3

Substance: 20-Hydroxyecdysone [20-OH-ecdysone]
- ecdysone responsiveness (CAT activity) (EcR/usp [1]): does not respond
- ecdysone responsiveness (CAT activity) (EcR/usp [1]; listed as 20-hydroxy-ecdysone): failed to confer responsiveness
- ecdysone responsiveness (CAT activity) (EcR/usp [2]; CV1 cells transfected with usp alone, ΔMTV-EcRE5-CAT reporter): does not respond; also recorded: did not result in ecdysone responsiveness
- ecdysone responsiveness (CAT activity) (EcR/usp [2]; CV1 cells, parental ΔMTV-CAT reporter without EcRE): did not result in ecdysone responsiveness
- ecdysone responsiveness (CAT activity) (EcR/usp [2]; CV1 cells, parental ΔMTV-CAT reporter without EcRE, listed as ecdysone): does not respond
